Data: ChEMBL document CHEMBL1140806, “Optimization of the heterocyclic core of the quinazolinone-derived CXCR3 antagonists” (Bioorg Med Chem Lett, 2008)

Experiments:
[1] = target: T1, C-X-C chemokine receptor type 3 (Homo sapiens, UniProt P49682); assay: Displacement of [125I]IP-10 from CXCR3 receptor expressed in human PBMC in EDTA-anti-coagulated human plasma
T1 sequence (P49682 whole entry): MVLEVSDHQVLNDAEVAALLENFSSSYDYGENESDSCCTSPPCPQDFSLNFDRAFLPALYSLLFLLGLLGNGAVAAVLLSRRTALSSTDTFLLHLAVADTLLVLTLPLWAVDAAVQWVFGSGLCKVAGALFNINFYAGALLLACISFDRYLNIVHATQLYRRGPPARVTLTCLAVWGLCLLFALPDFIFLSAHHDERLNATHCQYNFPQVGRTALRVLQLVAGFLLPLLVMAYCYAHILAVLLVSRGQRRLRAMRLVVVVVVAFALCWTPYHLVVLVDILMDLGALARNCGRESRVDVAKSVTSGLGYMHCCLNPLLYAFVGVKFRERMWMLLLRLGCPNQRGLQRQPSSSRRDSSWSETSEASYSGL

[2] = Mean residence time in rat at 0.5 mg/kg, iv; type: ADME, organism-based; parameters: dose 0.5 mg/kg, route intravenous; settings: in vivo
[3] = Oral bioavailability in rat at 2 mg/kg; type: ADME, organism-based; settings: in vivo
[4] = target: T1, C-X-C chemokine receptor type 3; assay: Displacement of [125I]IP-10 from CXCR3 receptor expressed in human PBMC in RPMI-1640 buffer supplemented with 0.5% BSA
[5] = Clearance in rat at 0.5 mg/kg, iv; type: ADME, organism-based; parameters: dose 0.5 mg/kg, route intravenous; settings: in vivo

Row | Compound | IC50 [1] | MRT [2] | bioavailability [3] | IC50 [4] | clearance [5] | Ki [4]
1 | CCS(=O)(=O)CCN(C(=O)Cc1ccc(F)c(C(F)(F)F)c1)[C@H](C)c1nc2ncccc2c(=O)n1-c1ccc(C#N)cc1 |  | 31.8 min | 47% |  | 39.7 mL/min/kg | 
2 | CCS(=O)(=O)CCN(C(=O)Cc1ccc(F)c(C(F)(F)F)c1)[C@H](C)c1nc2ccccc2nc1-c1ccc(C#N)cc1 | 121 nM |  |  | 9 nM |  | 
3 | CCS(=O)(=O)CCN(C(=O)Cc1ccc(F)c(C(F)(F)F)c1)[C@H](C)c1nn2ccccc2c1-c1ccc(C#N)cc1 | 523 nM |  |  | 18 nM |  | 
4 | CCS(=O)(=O)CCN(C(=O)Cc1ccc(F)c(C(F)(F)F)c1)[C@H](C)c1cc2ccccc2nc1-c1ccc(C#N)cc1 | 115 nM |  |  | 5 nM |  | 
5 | CCS(=O)(=O)CCN(C(=O)Cc1ccc(F)c(C(F)(F)F)c1)[C@H](C)c1nc2ccccn2c(=O)c1-c1ccc(C#N)cc1 |  | 84 min | 24% |  | 4 mL/min/kg | 

Now from value to molecule:

Row | IC50 [1] | MRT [2] | bioavailability [3] | IC50 [4] | clearance [5] | Ki [4] | Compound
6 | 27 nM | 22.2 min | 31% | 2 nM | 39.7 mL/min/kg |  | CCS(=O)(=O)CCN(C(=O)Cc1ccc(F)c(C(F)(F)F)c1)[C@H](C)c1nc2ncccc2cc1-c1ccc(C#N)cc1
7 | 60 nM | 21 min |  | 4 nM | 63 mL/min/kg |  | CCS(=O)(=O)CCN(C(=O)Cc1ccc(F)c(C(F)(F)F)c1)[C@H](C)c1nc2c(c(=O)n1-c1ccc(C#N)cc1)CCCN2C
8 | 21 nM | 90 min | 17% | 0.8 nM | 42.2 mL/min/kg |  | CCS(=O)(=O)CCN(C(=O)Cc1ccc(F)c(C(F)(F)F)c1)[C@H](C)c1nc2ccccc2cc1-c1ccc(C#N)cc1
9 | 21 nM | 15.6 min | 24% |  | 36.3 mL/min/kg | 3 nM | CCS(=O)(=O)CCN(C(=O)Cc1ccc(F)c(C(F)(F)F)c1)[C@H](C)c1nc2ccccn2c1-c1ccc(C#N)cc1
10 | 35 nM |  |  | 6 nM |  |  | CCS(=O)(=O)CCN(C(=O)Cc1ccc(F)c(C(F)(F)F)c1)[C@H](C)c1nc2ccccc2n1-c1ccc(C#N)cc1
11 | 79 nM |  |  |  |  |  | CCS(=O)(=O)CCN(C(=O)Cc1ccc(F)c(C(F)(F)F)c1)[C@H](C)c1nc2ncccn2c1-c1ccc(C#N)cc1
